Assay results published in ChEMBL document CHEMBL1201862, “PubChem BioAssay data set” (2004).
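1) Cells in 96-well plates. 2) Compound, 48 h, 5 concentrations. 3) Linear interpolation between surrounding doses. 4) Unreached endpoint = highest concentration. GI50 is the concentration that inhibits growth by half.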 Activity calls are given as the source filed them. Rule as the data show it: active = GI50 up to about 1.1 µM and inactive = higher.

Key:
Assay in all cases: NCI tumour cell line growth inhibition, 48 h
U-251 = system: U-251
EKVX = system: EKVX
RPMI-8226 = system: RPMI-8226
SK-MEL-28 = system: SK-MEL-28
MDA-MB-435 = system: MDA-MB-435
HL-60 = system: HL-60
UACC-257 = system: UACC-257
DU-145 = system: DU-145
OVCAR-3 = system: OVCAR-3
UO-31 = system: UO-31
MDA-MB-231 = system: MDA-MB-231
Hs-578T = system: Hs-578T
786-0 = system: 786-0
MOLT-4 = system: MOLT-4
Malme-3M = system: Malme-3M
HT-29 = system: HT-29
LOX IMVI = system: LOX IMVI
COLO 205 = system: COLO 205
OVCAR-5 = system: OVCAR-5
OVCAR-8 = system: OVCAR-8

SMILES | GI50 (U-251) | GI50 (EKVX) | GI50 (RPMI-8226) | GI50 (SK-MEL-28) | GI50 (MDA-MB-435) | GI50 (HL-60) | GI50 (UACC-257) | GI50 (DU-145) | GI50 (OVCAR-3) | GI50 (UO-31) | GI50 (MDA-MB-231) | GI50 (Hs-578T) | GI50 (786-0) | GI50 (MOLT-4) | GI50 (Malme-3M) | GI50 (HT-29) | GI50 (LOX IMVI) | GI50 (COLO 205) | GI50 (OVCAR-5) | GI50 (OVCAR-8)
N#Cc1cnn2c1n[n+]([O-])c1ccc(Cl)cc12 | 17 µM (inactive) | 2.9 µM (inactive) | 23.8 µM (inactive) | 13.2 µM (inactive) | 11.9 µM (inactive) | 2.86 µM (inactive) | 9.35 µM (inactive) | 14.9 µM (inactive) | 2.96 µM (inactive) | 13.5 µM (inactive) | 15.1 µM (inactive) | 5.3 µM (inactive) | 27.4 µM (inactive) | 7.31 µM (inactive) | 7.69 µM (inactive) | 7.98 µM (inactive) | 3.98 µM (inactive) | 16.6 µM (inactive) | > 45.1 µM (inactive) | 11.5 µM (inactive)
NCCNS(=O)(=O)c1ccc(N)cc1 | > 100 µM (inactive) | > 100 µM (inactive) | > 100 µM (inactive) | > 100 µM (inactive) | > 100 µM (inactive) | 18.7 µM (inactive) | > 100 µM (inactive) | > 100 µM (inactive) | > 100 µM (inactive) | > 100 µM (inactive) | > 100 µM (inactive) | 66.1 µM (inactive) | > 100 µM (inactive) | > 100 µM (inactive) | > 100 µM (inactive) | > 100 µM (inactive) | > 100 µM (inactive) | > 100 µM (inactive) | > 100 µM (inactive) | > 100 µM (inactive)
O=C(Oc1ccccc1)N1c2ccccc2[C@@]23O[C@]24CCC[C@H]3C#C/C=C\C#C[C@H]14 | 16.7 µM (inactive) | 14.9 µM (inactive) | 2.82 µM (inactive) | 14 µM (inactive) | 16.1 µM (inactive) | 0.506 µM (active) | 14.9 µM (inactive) | 1.05 µM (active) | 13.3 µM (inactive) | 13.7 µM (inactive) | 12.3 µM (inactive) | 16.6 µM (inactive) | 10.5 µM (inactive) | 0.706 µM (active) | 10.4 µM (inactive) | 11.2 µM (inactive) | 12.9 µM (inactive) | 14.8 µM (inactive) | 11.8 µM (inactive) | 11.9 µM (inactive)
CCN=C=NCCCN(C)C | > 100 µM (inactive) | > 100 µM (inactive) | > 100 µM (inactive) | > 100 µM (inactive) | > 100 µM (inactive) | > 100 µM (inactive) | > 100 µM (inactive) | > 100 µM (inactive) | > 100 µM (inactive) | > 100 µM (inactive) | > 100 µM (inactive) | > 100 µM (inactive) | > 100 µM (inactive) | > 100 µM (inactive) | > 100 µM (inactive) | > 100 µM (inactive) | > 100 µM (inactive) | > 100 µM (inactive) | > 100 µM (inactive) | > 100 µM (inactive)
CN(C)c1ccc(C(C#N)N2CCCN(C(C#N)c3ccc(N(C)C)cc3)C2c2ccc(N(C)C)cc2)cc1 (stereo not given) | > 100 µM (inactive) | > 100 µM (inactive) | > 100 µM (inactive) | > 100 µM (inactive) | > 100 µM (inactive) | > 100 µM (inactive) | > 100 µM (inactive) | > 100 µM (inactive) | > 100 µM (inactive) | > 100 µM (inactive) | > 100 µM (inactive) | > 100 µM (inactive) | > 100 µM (inactive) | > 100 µM (inactive) | > 100 µM (inactive) | > 100 µM (inactive) | > 100 µM (inactive) | > 100 µM (inactive) | > 100 µM (inactive) | > 100 µM (inactive)
Cc1ccc(S(=O)(=O)OC2CN3CCC2CC3)cc1 (stereo not given) | > 100 µM (inactive) | > 100 µM (inactive) | > 100 µM (inactive) | > 100 µM (inactive) | > 100 µM (inactive) | 22.6 µM (inactive) | > 100 µM (inactive) | > 100 µM (inactive) | > 100 µM (inactive) | > 100 µM (inactive) | > 100 µM (inactive) | > 100 µM (inactive) | > 100 µM (inactive) | > 100 µM (inactive) | > 100 µM (inactive) | > 100 µM (inactive) | > 100 µM (inactive) | > 100 µM (inactive) | > 100 µM (inactive) | > 100 µM (inactive)
Cc1c(CNc2ccc(Cl)c(Cl)c2Cl)cnc2nc(N)nc(N)c12 | 0.172 µM (active) | 4.2 µM (inactive) | 2.08 µM (inactive) | 5.33 µM (inactive) | 0.107 µM (active) | 0.607 µM (active) | 0.236 µM (active) | 0.294 µM (active) | 13.6 µM (inactive) | 2.44 µM (inactive) | 0.891 µM (active) | 17.8 µM (inactive) | 0.0918 µM (active) | 0.164 µM (active) | 3.12 µM (inactive) | 0.162 µM (active) | 0.064 µM (active) | 5.35 µM (inactive) | 11 µM (inactive) | 0.053 µM (active)
